We go through two compounds from US20030153611A1, “1,3-Diarylprop-2-en-1-ones, compositions containing them and use thereof” (AVENTIS PHARMA S.A., priority 2001, published 2003).

Where a name gives a salt, the structure may show the parent alone.

For test [1], the target named is T1, Tubulin (Sus scrofa, UniProt P02550+P02554).
T1 construct: Tubulin is purified from pig brains according to the published methods; from tissue; host or cells: pig brain
Kind of test: Assessment of the inhibition of tubulin polymerization (turbidimetry). The conditions noted are these: tubulin 10 μM, turbidity at 350 nm, 37° C. In kind it is biochemical, pig. As for the experimental part:
Tubulin is purified from pig brains according to the published methods (Shelanski et al., 1973, Proc. Natl, Acad. Sci. USA, 70, 765-768. Weingarten et al., 1975, Proc. Natl, Acad. Sci. USA, 72, 1858-1862). Briefly, the brains are ground and centrifuged in an extraction buffer. The tubulin, contained in the extract supernatant, is subjected to two successive cycles of polymerization at 37° C. and depolymerization at 4° C., before being separated from the MAPs (Microtubule Associated Proteins) by chromatography on a phosphocellulose P11 column (Whatman). The tubulin thus isolated is more than 95% pure. It is stored in a buffer known as RB/2 30% glycerol, the composition of which is MES-NaOH [2-(N-morpholino)ethanesulfonic acid] 50 mM, pH 6.8; MgCl2 0.25 mM; EGTA 0.5 mM; 30% glycerol (v/v), GTP (guanosine 5′-triphosphate) 0.2 mM.
The polymerization of the tubulin into microtubules is monitored by turbidimetry as follows; the tubulin is adjusted to a concentration of 10 μM (1 mg/ml) in the RB/2 30% glycerol buffer, to which is added 1 mM GTP and 6 mM MgCl2. The polymerization is initiated by increasing the temperature from 6° C. to 37° C. in a cuvette with a 1 cm optical pathlength, placed in a Uvikon 931 spectrophotometer (Kontron) equipped with a thermostatically-regulated cuvette holder. The increase in the turbidity of the solution is monitored at 350 nm.
The products are dissolved at 10 mM in DMSO and added at variable concentrations (0.5 to 10 μM) to the tubulin solution before polymerization. The IC50 value is defined as the concentration of product which inhibits 50% of the rate of polymerization. A product whose IC50 value is less than or equal to 3 μM is considered as very active.

For test [2], the system named is HDMEC. As to the kind of experiment: Inhibition of cell proliferation, HDMEC. In kind it is cell-based. Particulars: Homo sapiens.
In test [3] the test system is HDMEC cells. As to the kind of experiment: Detachment effect on HDMEC endothelial cells. The test is classed as cell-based, Human. Particulars: 1 μM, treatment for two hours.
Description: A test to determine the detachment of endothelial cells was established in order to select the products on the basis of their “in vitro” activity. This test for determining the endothelial cell detachment is characterized in that the endothelial cells, inoculated in plates which are coated at the bottom with a binder, e.g., chosen from gelatin, fibronectin or vitronectin, after culturing, are supplemented with a medium containing the test compound, and the cells are then labeled with a fluorescent substance, the cells which become detached are removed by washing and the fluorescence of the remaining cells is counted in a fluorimeter.
This test consists in measuring the detachment of endothelial cells cultured on substrates based on a binder, e.g., chosen from fibronectin, vitronectin and gelatin. One day after inoculating the cells in plates containing 96 wells, for example, the culture medium is replaced with a medium containing the test compound in the absence of serum. The same preparation is prepared six times at three different concentrations ([…]) and the control without addition of antivascular product is prepared six times. After treatment for two hours with the test substance, the cells are labeled with calcein-AM (1.6 μg/ml) in a culture medium supplemented with 0.1% BSA. The cells which become detached are removed by washing with the culture medium containing 0.1% bovine serum albumin; 100 μl of medium are added to each well. The fluorescence of the remaining cells is counted in a fluorimeter. The data obtained are expressed relative to the control (untreated cells).
(§1) The assessment of the detachment of the endothelial cells in vitro is determined in the following way. HDMEC cells (Human Dermal Microvascular Endothelial Cells, Promocell, c-122102) are cultured in an ECGM-MV medium containing 5% fetal calf serum, growth factors (EGF 10 ng/ml, hydrocortisone 1 μg/ml, 0.4% growth supplement with heparin) and antibiotics (amphotericin 50 ng/ml, gentamicin 50 μg/ml). For the detachment test, the HDMECs are inoculated at a rate of 5 000 cells in clear-bottomed 96-well plates (Costar) precoated with fibronectin (10 μg/ml) or vitronectin (1 μg/ml) or gelatin. Twenty-four hours later, the culture medium is replaced with 0.1% BSA ECGM-MV medium containing the indicated products. The test concentrations are 0.1-0.3 and 1 μM for each product. After treatment for two hours, the cells are labeled for 1 hour with calcein (1.6 μg/ml, Molecular Probes) in 0.1% BSA ECGM-MV medium. The detached cells are then removed by washing with 0.1% BSA ECGM-MV medium; 100 μl of medium are added to each well. The fluorescence of the cells which remain attached to the substratum of the well is counted using a fluorimeter, Spectrafluor Plus (Tecan, excitation at 485 nm, and emission at 535 nm). The data are the average of six different samples and are expressed as a percentage of the control (untreated cells).
A cell detachment effect of greater than or equal to 15% is considered as significant.
as §1, with “(amphotericine” for “(amphotericin”, “The detached cells are then removed by washing with 0.1% BSA ECGM-MV medium; 100 μl of medium are added to each well. The fluorescence of the cells which remain attached to the substratum of the well is counted using a fluorimeter, Spectrafluor Plus (Tecan, excitation at 485 nm, and emission at 535 nm). The data are the average of six different samples and are expressed as a percentage of the control (untreated cells).” left out

T1 sequence (P02550 whole entry): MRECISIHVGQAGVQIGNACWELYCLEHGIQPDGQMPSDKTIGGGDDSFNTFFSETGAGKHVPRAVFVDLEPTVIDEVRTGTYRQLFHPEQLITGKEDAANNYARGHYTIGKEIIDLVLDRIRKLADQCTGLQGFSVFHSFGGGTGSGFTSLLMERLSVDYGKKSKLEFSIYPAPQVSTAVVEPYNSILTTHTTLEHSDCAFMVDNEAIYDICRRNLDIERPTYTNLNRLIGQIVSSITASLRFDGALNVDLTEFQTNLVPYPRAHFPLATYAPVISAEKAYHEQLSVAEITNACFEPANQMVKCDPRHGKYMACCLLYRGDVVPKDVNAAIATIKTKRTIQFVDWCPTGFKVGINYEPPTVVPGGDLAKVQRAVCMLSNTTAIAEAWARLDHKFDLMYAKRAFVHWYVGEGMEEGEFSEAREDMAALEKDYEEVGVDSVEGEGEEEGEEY
T1 sequence (P02554 whole entry): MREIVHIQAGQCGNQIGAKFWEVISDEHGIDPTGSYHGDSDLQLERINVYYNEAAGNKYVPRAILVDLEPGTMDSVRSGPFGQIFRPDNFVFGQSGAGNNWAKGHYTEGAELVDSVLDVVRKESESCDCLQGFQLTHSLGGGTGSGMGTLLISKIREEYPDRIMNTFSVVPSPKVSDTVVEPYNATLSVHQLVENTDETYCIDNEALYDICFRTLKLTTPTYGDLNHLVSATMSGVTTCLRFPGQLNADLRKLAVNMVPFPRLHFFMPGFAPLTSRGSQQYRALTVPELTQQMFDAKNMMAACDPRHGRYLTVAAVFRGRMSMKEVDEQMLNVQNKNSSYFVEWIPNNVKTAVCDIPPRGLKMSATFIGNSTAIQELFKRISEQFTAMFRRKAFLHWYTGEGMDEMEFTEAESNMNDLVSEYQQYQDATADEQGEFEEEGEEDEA

With `COc1cc(C(=O)/C(C)=C/c2ccc3c(ccn3C)c2)cc(OC)c1OC` [Example 5, E-2-Methyl-3-(1-methyl-1-H-indol-5-yl)-1-(3,4,5-trimethoxyphenyl)propenone], the IC50 – broadly, the concentration that inhibits the measured activity by half – in test [1] is 0.7 µM; in test [2], 0.03 µM. Besides, the “Percentage of detachment of HDMEC cells induced with the compound at a concentration of 1 μM” value in test [3] was 32%.

In the case of `COc1ccc(/C=C(\C)C(=O)c2cc(OC)c(OC)c(OC)c2)cc1NC(=O)[C@@H](N)CO` [Example 13, (S)-2-Amino-3-hydroxypropanoic acid {2-methoxy-5-[2-methyl-3-oxo-3-(3,4,5-trimethoxyphenyl)propenyl]phenyl}amide hydrochloride], the IC50 in test [1] stood at 10 µM; in test [2], 0.03 µM. The “Percentage of detachment of HDMEC cells induced with the compound at a concentration of 1 μM” value in test [3] turned out to be 31%.
